Reference: ChEMBL document CHEMBL1152891, “Design of novel aminopyrrolidine factor Xa inhibitors from a screening hit” (Eur J Med Chem, 2009)
In brackets after ≈: the same amount, converted by molar mass.

Tests used:
[1] = Lipophilicity, log D of the compound; assay type: physicochemical; settings: octanol/water
[2] = Aqueous solubility of the compound; assay type: physicochemical
[3] = Volume of distribution at steady state in rat at 0.5 mg, iv; assay type: ADME, organism-based; settings: in vivo, read-out: Vdss
[4] = Permeability across cell membrane; assay type: ADME; settings: not told; read-out: permeability
[5] = Oral bioavailability in rat at 1 mg, po; assay type: ADME, organism-based; settings: in vivo
[6] = Tmax in rat at 1 mg, po; assay type: ADME, organism-based; settings: in vivo
[7] = Volume of distribution at steady state in rat at 1 mg, iv; assay type: ADME, organism-based; settings: in vivo, read-out: Vdss

logD [1]	solubility ([2]; aqueous, read-out: solubility) [µg/mL]	SMILES	also measured
2.4	< 1	O=C(Cn1nnc(NC(=O)c2ccc(Cl)s2)n1)Nc1ccc(-n2ccccc2=O)cc1F	
2.3	166 (≈ 350 µM)	O=C(CN1CC[C@H](NC(=O)c2ccc(Cl)s2)C1)Nc1ccc(-n2ccccc2=O)cc1F	
-0.5	> 600	CN1CCC(N2CCN(C(=O)Cn3cnc(NC(=O)c4ccc(Cl)s4)n3)CC2)CC1	
2.4	1 (≈ 2.11 µM)	O=C(Cn1cnc(NC(=O)c2ccc(Cl)s2)n1)Nc1ccc(-n2ccccc2=O)cc1F	Vd [3]: 0.3 L/kg; Papp [4]: 0.9 ×10⁻⁶ cm/s; bioavailability [5]: 10%; Tmax [6]: 66 min
> 3	< 1	O=C(Cc1csc(NC(=O)c2ccc(Cl)s2)n1)Nc1ccc(-n2ccccc2=O)cc1F	
		O=C(CN1C[C@H](NC(=O)c2ccc(Cl)s2)[C@@H](O)C1)Nc1ccc(-n2ccccc2=O)cc1F	Vd [3]: 1.1 L/kg; Papp [4]: 1.5 ×10⁻⁶ cm/s; bioavailability [5]: 38%; solubility ([2]; buffer): 516 µg/mL (≈ 1050 µM); Tmax [6]: 15 min
2.3	197 (≈ 415 µM)	O=C(CN1CC[C@@H](NC(=O)c2ccc(Cl)s2)C1)Nc1ccc(-n2ccccc2=O)cc1F	
0.1	> 601	CN1CCC(N2CCN(C(=O)Cn3ccc(NC(=O)c4ccc(Cl)s4)n3)CC2)CC1	
> 3	< 1	O=C(Cc1csc(NC(=O)c2ccc(Cl)cc2)n1)Nc1ccc(-n2ccccc2=O)cc1F	
> 3	< 1	O=C(Cn1ccc(NC(=O)c2ccc(Cl)s2)n1)Nc1ccc(-n2ccccc2=O)cc1F	
1.6		O=C(CN1C[C@H](NC(=O)c2ccc(Cl)s2)[C@@H](OCCO)C1)Nc1ccc(-n2ccccc2=O)cc1F	Vd [7]: 1.1 L/kg; Papp [4]: 0.4 ×10⁻⁶ cm/s; bioavailability [5]: 16%; solubility ([2]; buffer): > 713 µg/mL; Tmax [6]: 15 min

SMILES	logD [1]	solubility ([2]; aqueous, read-out: solubility) [µg/mL]	also measured
CN1CCC(N2CCN(C(=O)Cc3csc(NC(=O)c4ccc(Cl)s4)n3)CC2)CC1	1	> 620	
CN1CCC(N2CCN(C(=O)Cc3csc(NC(=O)c4ccc(Cl)cc4)n3)CC2)CC1	0.6	> 620	
O=C(Nc1nc(CC(=O)N2CCN(CC(=O)N3CCCC3)CC2)cs1)c1ccc(Cl)s1	2.1	> 640	
O=C(Nc1nc(CC(=O)N2CCN(CC(=O)N3CCCC3)CC2)cs1)c1ccc(Cl)cc1	2.2	> 580	
